# Results from patent US9125352B2, “Method for maturing and synchronizing conifer somatic embryos” (SweTree Technologies AB, priority 2010, dated 2015).
# How the values were obtained:
# [1] = system: embryogenic cells, cell-line 06:28:05; experiment: Comparison of inositol with other sugar alcohols and with sucrose on solid DKM+ABA maturation medium (Example 3); assay type: cell-based, Norway spruce; details: for Plates with 10 high quality embryos: addition to standard medium: 0.25 M (or 0.125 M + 0.125 M), three plates of 1.0-1.5 g cells per treatment
# Description: The action of 0.25, M inositol in improving somatic embryo quality is likely to be partly osmotic, partly nutritional, with cell signaling effects also involved. The inventors tested whether 0.25, M inositol could be replaced with 0.25, M of other sugar alcohols (mannitol and sorbitol) or 0.25, M extra sucrose by spreading 1.0, to 1.5, g fresh weight of embryogenic cells, cell-line 06:28:05, on each of six plates of solid DKM+ABA maturation medium for continued growth and development over four weeks, with one subculture after 2, weeks. The cells were then subcultured onto three plates each (1.0-1.5, g cells per plate) of medium containing in addition either a) 0.25, M inositol, or b) 0.125, M mannitol and 0.125, M sorbitol, or c) 0.25, M sucrose. Control cells continued on standard medium. After three weeks, embryos of good quality were transferred to germination medium, ten embryos per petri dish, as a rough quantitative estimate of quality.
# [2] = system: embryogenic callus of Norway spruce, cell-lines 61:21, 19:01 and 28:05; experiment: Inositol concentration series on maturation medium, embryo quality measurements (Example 4); assay type: cell-based; details: for root development, indicating premature germination: FIG. 2a-c
# Description: To investigate how various inositol concentrations synchronize embryo development and affect the quality of the developing embryos, three cell-lines of embryogenic callus of Norway spruce, cell-lines 61:21, 19:01, and 28:05, were exposed to 1, week on prematuration medium, and matured for 40, days, 36, days or 33, days, respectively on maturation medium with subculturing every two weeks. Small clumps about 1, cm diameter of maturing embryos were then subcultured on maturation medium containing 0.0005, M (here denoted 0, M), 0.06, M, 0.1, M, 0.2, M, 0.25, M or […] inositol.
# Twenty individual mature embryos or small plantlets were picked randomly from the plates and the following measurements were taken, for quality measurement, see FIG. 1: width of hypocotyls (1), width across the cotyledons one third of the way down of the hypocotyls (2), width across the cotyledons two third of the way down of the hypocotyls (3) and length of the hypocotyls (4), length of root (5).
# [3] = system: somatic embryos of Norway spruce, cell line 06:28:05; experiment: Mature embryos left 12 days in maturation medium with 0.25 M inositol after particle bombardment (Example 1); assay type: cell-based
# Description: The aim of the experiment was to infect somatic embryos of Norway spruce with a virus using a particle gun according to a routine method (Clapham et al. 2000: Scand. J. For. Res. 15:151-160) and derive plants containing the virus. The original standard bombardment procedure was developed for the transformation of embryogenic cultures consisting of immature embryos (i.e. proembryonic masses or PEMs). In the original protocol, from one to two hours before bombardment with gold particles coated with DNA, the cells are temporarily plasmolyzed with 0.25 M myo-inositol in proliferation medium (Table 4) to reduce damage from the penetration of the gold particles.
# In the present experiment, mature embryos instead of PEMs were bombarded. The cultures of cell line 06:28:05, had been matured on standard DKM medium containing ABA for 50, days before bombardment. The embryos were exposed to medium containing 0.25, M inositol for 1-2, hours before bombardment. After bombardment the cells were unintentionally left in maturation medium containing 0.25, M inositol for 12, days, then returned to standard DKM medium containing ABA. […] About 50 plantlets with more or less well developed roots were planted out at once in pots containing mineral wool, which is not usually possible; fifteen of these survived and continued to grow. Sixty-two additional plantlets were grown aseptically on solid standard germination medium (quarter strength Schenk and Hildebrandt) to develop the root system for about 2, months; 51, of these grew well enough to plant out in pots of mineral wool. At least 48, of the plants were growing vigorously a month later. The appearance of these somatic embryo-derived plants encouraged the inventors to believe that mature embryos exposed to the relatively high concentration of inositol in the present experiment were of unusually high quality and ready for germination, without partial drying under high humidity for 2-3, weeks as in the standard procedure.
# [4] = system: Mexican Yellow Pine, Pinus oocarpa, line 2; experiment: Corresponding inositol experiments with Mexican Yellow Pine (Example 6); assay type: cell-based; details: inositol series as for Scots pine
# [5] = system: embryogenic cultures of cell-line 06:28:05; experiment: Maturation in temporary-immersion bioreactors, DKM+ABA then DKM+0.25 M inositol+ABA, then germination (Example 2); assay type: cell-based, Norway spruce
# Protocol: Several experiments were performed to confirm the observations of Example 1 and to refine the novel culture method. Subsequent experiments confirm that the process of bombardment itself has no effect additional to the inclusion of 0.25, M myo-inositol in the medium. In the present experiment, embryogenic cultures of the same cell-line 06:28:05, were matured in bioreactors that enabled periodic temporary submersion in liquid DKM containing ABA. In two bioreactors, the embryos were matured for 38, days in DKM+ABA, then for 25 days in DKM+0.25, M inositol+ABA. In two control bioreactors, the cultures were maintained continuously in DKM+ABA, without the inositol treatment.
# Embryos from the experimental and control reactors were placed on solid germination media in petri dishes mainly to optimize germination media. Plantlet quality was assessed after 6, days' germination as ‘bent’ or ‘not bent’. Whereas only 12, out of 134, (9%) inositol-treated embryos developed into bent plantlets, 50, out of 140, (36%) of the control embryos developed into bent plantlets. The difference was highly significant (P<0.0001) by Fisher's contingency test.
# [6] = system: Norway spruce embryos, cell-lines 95:61:21 (61:21), 19:01 and 28:05; experiment: Germination (root length) on germination medium after inositol treatment, without partial drying (Example 5); assay type: cell-based
# Protocol: Then 15, embryos from each concentration of inositol were transferred to germination medium (same as the prematuration medium). The progress of germination was measured by root length after 11, days on germination medium. Germination was fastest for the embryos that had been treated with 0.25, M inositol FIG. 6a. The difference between the root lengths after treatment at the three highest concentrations compared with those at the three lowest concentrations was highly significant by t-test (P<0.001). The experiment was repeated with another replicate of cell-line 61:21. This time, the inositol treatment was for 25, days, the small clumps of embryos were transferred to prematuration medium for 9, days, then 10, embryos were individually planted on prematuration medium and root length was measured 29, days later. […] The length of inositol treatment was 16, days for both lines. Root length was measured 12, or 14, days according to cell-line after transfer of 20, embryos for each concentration of inositol to prematuration medium for germination. For all four experiments of Example 5, root length after treatments of 0.2, to 0.3 M inositol was compared to root length after treatments with 0, to 0.1, M inositol in a paired t-test. […] The inventors have compared on a small scale the germination of inositol-treated embryos with partially dried embryos that have been matured by standard procedures.
# somatic embryo cultures = experiment: Embryo culture in medium with plasmolytic or near plasmolytic concentration of sugar alcohol (general findings); assay type: cell-based; details: for effect on maturation in the embryo cultures: plasmolytic or near plasmolytic concentration
# Description: The invention is based on a serendipitous discovery. Gene transfer to spruce somatic embryos using a particle gun was experimented with, using a special medium originally designed for use with gene transfer for embryogenic cultures, containing 0.25, M myo-inositol. The resulting plasmolysis reduces damage during penetration by the gold particles, since it relaxes the tension in the cell membranes and minimizes tearing. By mistake, the somatic embryos were left in this medium for 12, days instead of returning them to the normal proliferation medium as intended. […] Consequently, the cells are first plasmolyzed and then gradually deplasmolyzed.
# [7] = system: embryos of cell-line 28:05; experiment: Growth of germinated inositol-treated embryos in stonewool pots for three months (Example 5); assay type: in vivo, Norway spruce
# Protocol: Embryos of cell-line 28:05, treated with 0.25, M inositol and germinated in vitro as described above were grown on in stonewool in plastic pots 8×8×10, cm with standard commercial mineral nutrition in a growth chamber in continuous light at 20° C. for three months.
# [8] = system: embryogenic callus of Scots pine, Pinus sylvestris, cell-line 42:6:3; experiment: Inositol concentration series on DCR maturation medium and germination on DKM (Example 6); assay type: cell-based
# Description: In order to verify the broad use of the newly invented method, additional conifers have been tested by adapting the methods of Examples 4, and 5. Embryogenic callus of Scots pine, Pinus sylvestris, cell-line 42:6:3, was proliferated on DCR medium (Burg et al. 2007:, J. Exp. Bot. 58: 687-698) containing 2,4-D and BA at the same concentrations as described for spruce. The cells were taken through the early maturation step on DCR medium containing 7.5% polyethylene glycol 400, 3% maltose (replacing sucrose) and 16, mg per liter abscisic acid (Burg et al. 2007:, J. Exp. Bot. 58: 687-698). Samples of cells were then exposed to the same medium containing inositol at concentrations of 0.0005, M 0.1, M, 0.2, M, 0.25, M, 0.3, M or 0.5 M for four weeks. […] Somatic embryogenesis is more problematic in pine than in spruce, so that experiments with mature embryos were on a small scale.
# [9] = 0.25 M inositol, after 6 days' germination, out of 134 embryos
# [10] = high concentrations of inositol
structure (smiles),measurement,setting,value
"O[C@H]1[C@H](O)[C@@H](O)[C@H](O)[C@@H](O)[C@H]1O [inositol, cis-1,2,3,5-trans-4,6-cyclohexanehexol]",embryos of good quality relative to mannitol plus sorbitol,[1]; 0.25 M inositol vs 0.125 M mannitol plus 0.125 M sorbitol,about twice
same,Plates with 10 high quality embryos,[1]; three weeks,6
same,effect on embryo development (summary),[2]; 0.2-0.3 M inositol,synchronized development of the embryos by inhibiting germination but not embryo development
same,"root development, indicating premature germination",[2]; 0.2-0.3 M inositol,inhibited almost completely
same,ratio of width one third down the hypocotyl (2) to width two thirds down the hypocotyl (3),"[2]; 0.2-0.3 M inositol, FIG. 5a-c",just above unity
same,coefficient of variation of width across the cotyledons (minimum),"[2]; cell-line 28:05, 0.25 M inositol, FIG. 4",35%
same,inositol concentration at which the coefficient of variation of hypocotyl length is at a minimum (synchrony maximal),"[2]; cell-line 61:21, FIG. 3",0.25 M
same,"root development, indicating premature germination",[2]; low concentrations of inositol,present
same,variation in hypocotyl length,"[2]; the other two cell-lines (19:01, 28:05), higher concentrations of inositol",reduced markedly
same,embryo appearance compared with embryos from the standard protocol,[3]; 0.25 M inositol,strikingly more uniform and broader in relation to length
same,plantlets that survived and continued to grow after being planted out at once in pots containing mineral wool,"[3]; 0.25 M inositol 12 days, of about 50 plantlets planted out",fifteen
same,plantlets that grew well enough to plant out in pots of mineral wool,"[3]; 0.25 M inositol 12 days, of sixty-two plantlets grown about 2 months on solid germination medium",51
same,plants growing vigorously a month later,"[3]; 0.25 M inositol 12 days, of the 51 planted out in mineral wool",At least 48
same,germination after return to standard DKM medium containing ABA,"[3]; 0.25 M inositol for 12 days, observed after 8 days on standard DKM+ABA",many embryos had germinated and formed healthy well developed small plantlets
same,outcome compared with the Scots pine experiments,[4],showed the same tendencies
same,embryos that developed into bent plantlets (number),[5]; [9],12
same,embryos that developed into bent plantlets (percent),[5]; [9],9%
same,embryo appearance compared with controls,"[5]; 38 days DKM+ABA then 25 days DKM+0.25 M inositol+ABA, bioreactors","strikingly more uniform, and broader in relation to length"
same,yield of high-quality embryos relative to untreated controls,"[5]; bioreactor experiment, 0.25 M inositol",six to eight
same,root length after 0.2 to 0.3 M inositol compared with 0 to 0.1 M inositol,"[6]; all four experiments of Example 5, paired t-test, P<0.03",significantly greater
same,"germination, measured by root length after 11 days on germination medium","[6]; cell-line 95:61:21, 0.25 M inositol for 17 days, 15 embryos, FIG. 6a",fastest
same,subsequent root growth on germination medium,"[6]; cell-lines 19:01 and 28:05, 16 days inositol, root length at 12 or 14 days, FIGS. 6c, 6d",advantages of treatment with high concentrations of inositol for subsequent root growth
same,"rooting, root length measured 29 days after planting on prematuration medium","[6]; replicate of cell-line 61:21, 0.25 M inositol for 25 days, 10 embryos, FIG. 6b",rooting fastest
same,germination compared with partially dried embryos matured by standard procedures,[6]; small scale comparison,shoots grow faster and more vigorously
same,need for partial drying before germination,somatic embryo cultures; [10],require no further partial drying before germination
same,quality of mature embryos formed,somatic embryo cultures; high concentrations of inositol (myo-inositol) in the culture media,more robust mature embryos with improved rooting capabilities
same,effect on maturation in the embryo cultures,somatic embryo cultures,induce synchronous maturation
same,condition of plants after three months in stonewool,"[7]; 0.25 M inositol, growth chamber, continuous light, 20° C.",vigorous and healthy
same,longer term effects on subsequent growth,[7]; [10],no unexpected longer term effects on subsequent growth
same,"signs of premature germination (hypocotyl extension, greening of cotyledons)","[8]; 0.0005 M and 0.1 M inositol, four weeks",some of the embryos showed characteristic signs of premature germination
same,maturation and precocious germination,"[8]; 0.2-0.3 M inositol, four weeks",precocious germination was inhibited
same,"proportion of embryos that developed healthy roots on the germination medium, compared with 0.0005 M",[8]; 0.25 M inositol,higher proportion
same,signs of stress (red colour under the cotyledons) within two days of germination on DKM,[8]; 0.25 M inositol,no such signs of stress
same,condition of embryos compared with those exposed to 0.0005 M inositol,"[8]; 0.25 M inositol, groups of ten embryos germinated on DKM",in better condition
same,effect on further maturation of the embryos,[8]; 0.5 M inositol,inhibited further maturation of the embryos
OC[C@@H](O)[C@@H](O)[C@H](O)[C@H](O)CO [mannitol],effect on maturation in the embryo cultures,somatic embryo cultures,induce synchronous maturation
OC[C@@H](O)[C@@H](O)[C@H](O)[C@@H](O)CO [sorbitol],effect on maturation in the embryo cultures,somatic embryo cultures,induce synchronous maturation
"OC[C@H]1O[C@@](CO)(O[C@H]2O[C@H](CO)[C@@H](O)[C@H](O)[C@H]2O)[C@@H](O)[C@@H]1O [sucrose, reference compound]",effect on embryo quality,"[1]; 0.25 M addition to DKM+ABA, three weeks",clearly detrimental effect
same,Plates with 10 high quality embryos,[1]; three weeks,0
